Source: article PMC12527922, “Cocaine chemogenetics blunts drug-seeking by synthetic physiology” (Nature, 2025)

Tests used:
[1] = tested on: coca-GlyR in cultured hippocampal neurons; assay: Current-clamp of cultured hippocampal neurons expressing coca-GlyR; assay type: cell-based, rat
[2] = tested on: coca-5HT3 in cultured hippocampal neurons; assay: Current-clamp of cultured hippocampal neurons expressing coca-5HT3; assay type: cell-based, rat; conditions: for DmV MEAN: coca-5HT3-IRES-EGFP, MEAN of cells
[3] = tested on: hippocampal neurons expressing GFP; assay: Current-clamp of control cultured hippocampal neurons expressing GFP; assay type: cell-based, rat; conditions: for DmV MEAN: IRES-EGFP control, MEAN of cells
[4] = estimated from self-administration; cited from earlier work
coca-GlyR = target: T1, coca-GlyR (Homo sapiens, UniProt P23415+P36544, G175K/L141G/Y217F); assay: [^3H]ASEM displacement, membranes of HEK293 cells expressing coca-GlyR; assay type: binding; conditions: for Ki: [^3H]ASEM competition, two-site fit
T1 construct: expressed in transfected cells; host or cells: HEK293 (ATCC CRL-1573), pcDNA3.1
T1 sequence (P36544+P23415 fused P36544:L141G/P36544:G175K/P36544:Y217F): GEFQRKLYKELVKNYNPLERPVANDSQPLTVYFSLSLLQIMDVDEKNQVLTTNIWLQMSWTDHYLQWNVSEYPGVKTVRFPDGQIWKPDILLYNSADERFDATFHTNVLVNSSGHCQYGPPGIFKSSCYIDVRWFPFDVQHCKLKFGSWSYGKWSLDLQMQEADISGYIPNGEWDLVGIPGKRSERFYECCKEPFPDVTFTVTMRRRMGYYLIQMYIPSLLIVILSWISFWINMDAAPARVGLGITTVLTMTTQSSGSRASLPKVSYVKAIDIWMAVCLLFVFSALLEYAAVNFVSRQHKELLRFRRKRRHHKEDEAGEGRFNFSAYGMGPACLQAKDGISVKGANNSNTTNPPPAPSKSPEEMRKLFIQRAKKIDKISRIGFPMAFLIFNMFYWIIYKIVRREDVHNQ
Description: Cells were suspended in Tris-HCl 50 mM pH 7.4 supplemented with protease inhibitor cocktail (1:100, Sigma-Aldrich). HEK293 cells were disrupted with a 6 Polytron homogenizer (Kinematica). Homogenates were centrifuged at 48,000g (50 min, 4 °C) and washed twice in the same conditions to isolate the membrane fraction. Protein was quantified using the bicinchoninic acid method (Pierce). […] Free and membrane-bound radioligands were separated by rapid filtration of 500 μl aliquots in a 96-well plate harvester (Brandel) and washed with 2 ml of ice-cold Tris-HCl buffer. Microscint-20 scintillation liquid (65 μl per well, PerkinElmer) was added to the filter plates, plates were incubated overnight at room temperature and radioactivity counts were determined in the MicroBeta2 plate counter (PerkinElmer) with an efficiency of 41%. Two-site competition curves were fitted using Prism 10 (GraphPad). Ki values were calculated using the Cheng–Prusoff equation.

[5] = tested on: rats with coca-5HT3 in the LHb; assay: Cocaine IVSA (intravenous self-administration); assay type: in vivo, rat; conditions: Coca-5HT3 rats
control rats = assay: Cocaine IVSA (intravenous self-administration), control rats; assay type: in vivo, rat

COC(=O)[C@H]1[C@@H](OC(=O)c2ccccc2)C[C@@H]2CC[C@H]1N2C [cocaine]
rheobase ([1]; coca-GlyR neurons, 10 uM, single cells): 200 pA
firing in response to current injection ([1]; neurons with coca-GlyR): inhibited
membrane input resistance ([1]; neurons with coca-GlyR): dose-dependent reduction
rheobase ([1]; neurons with coca-GlyR, cocaine 3 and 10 µM): increased
current required to elicit an action potential (rheobase) ([2]; 3 µM cocaine): reduced
DmV MEAN ([2]; cocaine 0.1 uM): 0.3818 mV
DmV MEAN ([2]; cocaine 0.3 uM): 1.236 mV
DmV MEAN ([2]; cocaine 1 uM): 4.155 mV
DmV MEAN ([2]; cocaine 3 uM): 11.3545 mV
DmV MEAN ([2]; cocaine 10 uM): 12.55 mV
neuronal firing ([2]; cocaine 1–3 µM): increased
depolarization of neurons expressing coca-5HT3 ([2]; current-clamp): depolarized neurons in a dose-dependent manner
depolarization of control neurons ([3]; GFP control neurons): did not affect control neurons
DmV MEAN ([3]; cocaine 0.1 uM): -0.03 mV
DmV MEAN ([3]; cocaine 0.3 uM): -0.2411 mV
DmV MEAN ([3]; cocaine 1 uM): 0.04889 mV
DmV MEAN ([3]; cocaine 3 uM): 0.31 mV
DmV MEAN ([3]; cocaine 10 uM): -0.01556 mV
DmV MEAN ([3]; cocaine 30 uM): -0.4375 mV
brain cocaine concentrations [4]: 2.5 to 20 µM
binding to coca-GlyR (coca-GlyR): biphasic manner
Ki (coca-GlyR; KiH): 0.014 ± 0.01 nM
Ki (coca-GlyR; KiL): 850 ± 500 nM
high-affinity binding sites (coca-GlyR; biphasic competition curve, [^3H]ASEM): 37.9 ± 0.5%
Sheet 3g, Mean (per-rat counts at each dose) ([5]; Dose 0.0625): 32.0909
Sheet 3h, Mean (sheet 3g count x dose, intake) ([5]; Dose 0.0625): 2.006
Sheet 3g, Mean (per-rat counts at each dose) ([5]; Dose 0.125): 43.1818
Sheet 3h, Mean (sheet 3g count x dose, intake) ([5]; Dose 0.125): 5.398
Sheet 3g, Mean (per-rat counts at each dose) ([5]; Dose 0.25): 30.2727
Sheet 3h, Mean (sheet 3g count x dose, intake) ([5]; Dose 0.25): 7.568
Sheet 3g, Mean (per-rat counts at each dose) ([5]; Dose 0.5): 19.0909
Sheet 3h, Mean (sheet 3g count x dose, intake) ([5]; Dose 0.5): 9.545
Sheet 3g, Mean (per-rat counts at each dose) ([5]; Dose 1): 10.8182
Sheet 3h, Mean (sheet 3g count x dose, intake) ([5]; Dose 1): 10.8182
Sheet 3g, Mean (per-rat counts at each dose) (control rats; Dose 0.0625): 37.2
Sheet 3h, Mean (sheet 3g count x dose, intake) (control rats; Dose 0.0625): 2.325
Sheet 3g, Mean (per-rat counts at each dose) (control rats; Dose 0.125): 69.7333
Sheet 3h, Mean (sheet 3g count x dose, intake) (control rats; Dose 0.125): 8.717
Sheet 3g, Mean (per-rat counts at each dose) (control rats; Dose 0.25): 50.5385
Sheet 3h, Mean (sheet 3g count x dose, intake) (control rats; Dose 0.25): 12.6346
Sheet 3g, Mean (per-rat counts at each dose) (control rats; Dose 0.5): 27.6667
Sheet 3h, Mean (sheet 3g count x dose, intake) (control rats; Dose 0.5): 13.8333
Sheet 3g, Mean (per-rat counts at each dose) (control rats; Dose 1): 15
Sheet 3h, Mean (sheet 3g count x dose, intake) (control rats; Dose 1): 15
